Results reported in patent publication US11912682B2, “Isoindolinone compounds” (Monte Rosa Therapeutics, Inc., priority 2021, dated 2024).

How the values were obtained:
[1] = target: T1, GSPT1 (Homo sapiens (Human), UniProt P15170); assay: GSPT1 degradation in tumors of treated mice (FIG. 3B); assay type: in vivo, mouse; conditions: all three dose levels (1, 3, 6 mg/kg), compared to vehicle control
[2] = system: NCI-H1155; assay: Viability of NSCLC cell line, high N-Myc (FIG. 2A); assay type: cell-based, human; conditions: compared to low N-Myc lines EBC-1, NCI-H2023
[3] = target: T2, GSPT1 (Homo sapiens (Human), UniProt P15170+Q96SW2); assay: GSPT1 degradation in high N-Myc NSCLC cells (FIG. 2); assay type: cell-based; conditions: for DC50: six hours of treatment
Target sequence in this assay (P15170 whole entry, looked up): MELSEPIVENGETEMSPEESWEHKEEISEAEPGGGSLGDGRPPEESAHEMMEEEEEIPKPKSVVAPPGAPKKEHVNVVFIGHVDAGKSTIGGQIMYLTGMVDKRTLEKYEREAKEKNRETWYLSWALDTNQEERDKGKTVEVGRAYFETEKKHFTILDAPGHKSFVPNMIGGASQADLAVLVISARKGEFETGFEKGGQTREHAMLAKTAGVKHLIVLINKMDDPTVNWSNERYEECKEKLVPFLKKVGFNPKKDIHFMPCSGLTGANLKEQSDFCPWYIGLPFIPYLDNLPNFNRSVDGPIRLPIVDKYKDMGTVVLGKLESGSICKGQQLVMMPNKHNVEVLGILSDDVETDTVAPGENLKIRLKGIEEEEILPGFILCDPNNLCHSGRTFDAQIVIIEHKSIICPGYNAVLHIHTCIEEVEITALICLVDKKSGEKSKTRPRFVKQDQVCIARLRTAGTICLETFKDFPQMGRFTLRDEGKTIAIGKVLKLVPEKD
Target sequence in this assay (Q96SW2 whole entry, looked up): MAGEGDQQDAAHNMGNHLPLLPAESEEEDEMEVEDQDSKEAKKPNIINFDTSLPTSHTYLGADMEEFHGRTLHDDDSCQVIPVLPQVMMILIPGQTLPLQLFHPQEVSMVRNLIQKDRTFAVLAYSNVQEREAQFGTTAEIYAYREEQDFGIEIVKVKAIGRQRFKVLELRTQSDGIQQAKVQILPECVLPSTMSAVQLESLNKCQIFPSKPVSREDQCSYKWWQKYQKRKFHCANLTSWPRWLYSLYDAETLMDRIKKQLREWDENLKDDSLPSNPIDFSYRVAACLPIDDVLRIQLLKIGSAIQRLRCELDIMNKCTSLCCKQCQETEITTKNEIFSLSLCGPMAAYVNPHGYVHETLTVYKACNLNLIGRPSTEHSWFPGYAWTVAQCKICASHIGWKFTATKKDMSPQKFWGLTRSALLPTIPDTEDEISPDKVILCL
Target sequence in this assay (Q16531 whole entry partner, looked up): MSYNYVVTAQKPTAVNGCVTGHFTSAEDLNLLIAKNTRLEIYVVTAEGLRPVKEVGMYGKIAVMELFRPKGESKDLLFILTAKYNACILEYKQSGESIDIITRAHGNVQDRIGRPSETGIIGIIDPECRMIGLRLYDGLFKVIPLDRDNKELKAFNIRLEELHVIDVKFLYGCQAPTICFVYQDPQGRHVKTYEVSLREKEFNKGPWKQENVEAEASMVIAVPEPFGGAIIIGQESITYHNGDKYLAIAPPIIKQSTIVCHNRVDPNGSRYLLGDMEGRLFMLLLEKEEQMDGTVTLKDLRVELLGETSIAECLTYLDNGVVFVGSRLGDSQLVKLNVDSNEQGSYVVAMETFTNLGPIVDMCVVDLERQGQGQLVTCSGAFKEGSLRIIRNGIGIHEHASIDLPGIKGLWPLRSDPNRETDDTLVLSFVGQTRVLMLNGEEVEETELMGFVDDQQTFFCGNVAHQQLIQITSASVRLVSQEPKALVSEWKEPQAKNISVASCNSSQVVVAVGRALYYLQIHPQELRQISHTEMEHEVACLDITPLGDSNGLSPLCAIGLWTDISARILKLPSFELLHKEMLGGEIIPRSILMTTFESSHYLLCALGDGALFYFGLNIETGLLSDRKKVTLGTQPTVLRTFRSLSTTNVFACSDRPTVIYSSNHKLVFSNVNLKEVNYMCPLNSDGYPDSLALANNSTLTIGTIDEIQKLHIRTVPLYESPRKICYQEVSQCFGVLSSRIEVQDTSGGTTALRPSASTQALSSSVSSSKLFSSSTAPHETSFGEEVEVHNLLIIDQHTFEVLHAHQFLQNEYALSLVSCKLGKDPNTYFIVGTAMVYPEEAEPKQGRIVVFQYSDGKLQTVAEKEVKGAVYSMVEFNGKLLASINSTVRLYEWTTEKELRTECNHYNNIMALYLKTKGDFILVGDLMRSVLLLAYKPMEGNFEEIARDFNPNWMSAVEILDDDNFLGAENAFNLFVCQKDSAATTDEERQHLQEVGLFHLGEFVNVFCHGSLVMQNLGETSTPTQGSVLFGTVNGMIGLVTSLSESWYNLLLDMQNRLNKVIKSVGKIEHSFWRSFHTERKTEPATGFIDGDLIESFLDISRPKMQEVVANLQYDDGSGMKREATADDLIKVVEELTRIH

[4] = target: IKZF1 (Homo sapiens (Human), UniProt Q13422); assay: IKZF1 degradation in cells treated with compound (FIG. 1A); assay type: cell-based; conditions: concentrations up to 30 µM
[5] = system: human cell line NCI-H1770; assay: N-Myc-driven mouse xenograft model, NCI-H1770 (FIG. 3C); assay type: in vivo
[6] = system: ABC-1; assay: Viability of NSCLC cell line, high N-Myc (FIG. 2A); assay type: cell-based; conditions: ABC-1, high N-Myc; compared to low N-Myc lines EBC-1, NCI-H2023
[7] = target: T2, GSPT1; assay: GSPT1 levels by western blotting and densitometry in NCI-H1155 and ABC-1 cell lines; assay type: cell-based; conditions: for DC50: six hours
Method: The anti-proliferative activity of compound 10 was tested on representative N-Myc high and N-Myc low cell lines (NCI-H1155, ABC-1 and EBC-1, NCI-H2023, respectively) following treatment with compound for 72 hours. Cells were sub-cultures as recommended by the providers (ATCC, DSMZ) and incubated at 37° C., 5% CO2. All cells were authenticated and confirmed by Short Tandem Repeat (STR) profiling. Briefly, cells were seeded to the appropriate density to allow logarithmic growth over the assay period in 96-well opaque-walled clear bottom plates (from Corning, Cat. No. 3903, Lot. No. 16419061; 100 μL total volume) and incubated overnight. Compound 10 and DMSO control were subsequently dispensed to the plates using HPD300 and a 9 data-point titration curve with concentrations ranging from 30 μM to 0.1 nM. Dilutions were prepared fresh prior to the assay using a 10 mM DMSO stock. Final DMSO concentration was 0.5%. The plates were incubated for 3 days at 5% CO2, 37° C. Cell viability was assessed using the CellTiter-Glo assay kit as recommended by the Manufacturer (Promega, Cat. No. G7558, Lot. No. 0000385738) and measurements performed on the EnSpire multimode plate reader (Perkin Elmer). EC50 values were determined using Prism8 (GraphPad) and the asymmetric (five-parameter) equation and least squares fit. GSPT1 levels were assessed in the NCI-H1155 and ABC-1 cell lines by densitometry analysis following treatment with compound 10 for 6 hours and western blotting analysis. […] Membranes were then transferred between two clean sheets of plastic and chemiluminescence (GSPT1), Dylight680 fluorescence (GAPDH) as well as colorimetric (molecular weight standard) signals were detected using a Chemidoc MP imaging system (BioRad 17001402). For chemiluminescence and colorimetric signals “optimal automatic exposure” settings (3×3 binning) were employed while fluorescence was detected using 1-4 seconds exposure time to achieve best GAPDH signals and avoid overexposure. […]
Target sequence in this assay (P15170 whole entry): as the sequence (P15170 whole entry, looked up) above
Target sequence in this assay (Q96SW2 whole entry): as the sequence (Q96SW2 whole entry, looked up) above
Target sequence in this assay (Q16531 2-1140 partner): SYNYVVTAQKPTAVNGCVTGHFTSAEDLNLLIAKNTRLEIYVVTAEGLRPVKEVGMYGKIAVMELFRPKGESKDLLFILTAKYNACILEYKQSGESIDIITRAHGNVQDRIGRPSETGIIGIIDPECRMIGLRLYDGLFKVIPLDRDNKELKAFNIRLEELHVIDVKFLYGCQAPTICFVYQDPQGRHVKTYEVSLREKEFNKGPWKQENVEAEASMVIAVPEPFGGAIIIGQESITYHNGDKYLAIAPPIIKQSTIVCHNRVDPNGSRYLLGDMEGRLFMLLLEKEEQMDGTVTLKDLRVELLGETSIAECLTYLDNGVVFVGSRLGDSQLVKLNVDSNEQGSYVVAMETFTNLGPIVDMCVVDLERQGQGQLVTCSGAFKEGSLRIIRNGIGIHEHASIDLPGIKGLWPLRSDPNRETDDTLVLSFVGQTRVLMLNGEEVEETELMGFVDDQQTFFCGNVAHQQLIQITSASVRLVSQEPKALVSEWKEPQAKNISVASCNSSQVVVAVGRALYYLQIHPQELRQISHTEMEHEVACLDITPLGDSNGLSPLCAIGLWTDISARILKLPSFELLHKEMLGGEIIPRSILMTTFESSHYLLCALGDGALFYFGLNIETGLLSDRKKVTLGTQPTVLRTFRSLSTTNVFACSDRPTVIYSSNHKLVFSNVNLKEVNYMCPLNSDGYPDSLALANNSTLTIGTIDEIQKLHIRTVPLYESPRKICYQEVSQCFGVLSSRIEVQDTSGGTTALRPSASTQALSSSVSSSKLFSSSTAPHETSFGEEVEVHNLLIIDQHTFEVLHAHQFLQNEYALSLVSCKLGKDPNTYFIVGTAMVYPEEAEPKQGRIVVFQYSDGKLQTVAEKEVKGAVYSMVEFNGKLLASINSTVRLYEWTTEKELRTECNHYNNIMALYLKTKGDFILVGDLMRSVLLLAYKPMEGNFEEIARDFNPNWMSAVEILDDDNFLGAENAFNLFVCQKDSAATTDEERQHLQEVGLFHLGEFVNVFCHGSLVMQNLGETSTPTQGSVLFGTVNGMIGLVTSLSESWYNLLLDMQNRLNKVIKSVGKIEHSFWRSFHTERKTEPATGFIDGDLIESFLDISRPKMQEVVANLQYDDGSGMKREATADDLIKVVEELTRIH

[8] = system: NCI-H1155, ABC-1 and EBC-1, NCI-H2023; assay: viability assay (CellTiter-Glo) in N-Myc high and N-Myc low NSCLC cell lines; assay type: cell-based; conditions: 72 hours
Method: The anti-proliferative activity of compound 10 was tested on representative N-Myc high and N-Myc low cell lines (NCI-H1155, ABC-1 and EBC-1, NCI-H2023, respectively) following treatment with compound for 72 hours. Cells were sub-cultures as recommended by the providers (ATCC, DSMZ) and incubated at 37° C., 5% CO2. All cells were authenticated and confirmed by Short Tandem Repeat (STR) profiling. Briefly, cells were seeded to the appropriate density to allow logarithmic growth over the assay period in 96-well opaque-walled clear bottom plates (from Corning, Cat. No. 3903, Lot. No. 16419061; 100 μL total volume) and incubated overnight. […] Cell viability was assessed using the CellTiter-Glo assay kit as recommended by the Manufacturer (Promega, Cat. No. G7558, Lot. No. 0000385738) and measurements performed on the EnSpire multimode plate reader (Perkin Elmer). EC50 values were determined using Prism8 (GraphPad) and the asymmetric (five-parameter) equation and least squares fit. GSPT1 levels were assessed in the NCI-H1155 and ABC-1 cell lines by densitometry analysis following treatment with compound 10 for 6 hours and western blotting analysis. […] For chemiluminescence and colorimetric signals “optimal automatic exposure” settings (3×3 binning) were employed while fluorescence was detected using 1-4 seconds exposure time to achieve best GAPDH signals and avoid overexposure. […]

[9] = target: T1, GSPT1; assay: GSPT1 levels in NCI-H1155 tumors by western blotting; assay type: in vivo, female BALB/c nude mice; conditions: 6 hours after the third dose, all three dose levels
Method: GSPT1 levels in tumors were determined by western blotting 6 hours after the third dose. Western blotting was performed as described previously using GAPDH as loading control.

[10] = target: IKZF3 (Homo sapiens (Human), UniProt Q9UKT9); assay: IKZF3 degradation in cells treated with compound (FIG. 1A); assay type: cell-based; conditions: concentrations up to 30 µM
IKZF3, sequence (Q9UKT9 whole entry, looked up): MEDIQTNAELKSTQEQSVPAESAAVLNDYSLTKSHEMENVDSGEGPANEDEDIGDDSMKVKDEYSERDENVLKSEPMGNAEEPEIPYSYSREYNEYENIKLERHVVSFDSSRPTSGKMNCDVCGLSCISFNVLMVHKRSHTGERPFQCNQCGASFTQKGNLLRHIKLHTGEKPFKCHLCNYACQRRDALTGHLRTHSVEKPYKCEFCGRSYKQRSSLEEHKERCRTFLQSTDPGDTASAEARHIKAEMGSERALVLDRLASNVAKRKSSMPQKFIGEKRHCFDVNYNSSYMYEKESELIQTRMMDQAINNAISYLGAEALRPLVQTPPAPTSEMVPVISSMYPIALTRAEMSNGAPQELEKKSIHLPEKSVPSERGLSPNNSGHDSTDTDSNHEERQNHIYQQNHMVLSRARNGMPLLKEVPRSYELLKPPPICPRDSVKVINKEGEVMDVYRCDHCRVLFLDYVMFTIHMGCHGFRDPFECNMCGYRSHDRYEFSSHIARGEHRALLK

T1 sequence (P15170 whole entry): as the sequence (P15170 whole entry, looked up) above
T1 sequence (Q96SW2 whole entry, further chain): as the sequence (Q96SW2 whole entry, looked up) above
T1 sequence (Q16531 2-1140 partner): as the sequence (Q16531 2-1140 partner) above
IKZF1, sequence (Q13422 whole entry, looked up): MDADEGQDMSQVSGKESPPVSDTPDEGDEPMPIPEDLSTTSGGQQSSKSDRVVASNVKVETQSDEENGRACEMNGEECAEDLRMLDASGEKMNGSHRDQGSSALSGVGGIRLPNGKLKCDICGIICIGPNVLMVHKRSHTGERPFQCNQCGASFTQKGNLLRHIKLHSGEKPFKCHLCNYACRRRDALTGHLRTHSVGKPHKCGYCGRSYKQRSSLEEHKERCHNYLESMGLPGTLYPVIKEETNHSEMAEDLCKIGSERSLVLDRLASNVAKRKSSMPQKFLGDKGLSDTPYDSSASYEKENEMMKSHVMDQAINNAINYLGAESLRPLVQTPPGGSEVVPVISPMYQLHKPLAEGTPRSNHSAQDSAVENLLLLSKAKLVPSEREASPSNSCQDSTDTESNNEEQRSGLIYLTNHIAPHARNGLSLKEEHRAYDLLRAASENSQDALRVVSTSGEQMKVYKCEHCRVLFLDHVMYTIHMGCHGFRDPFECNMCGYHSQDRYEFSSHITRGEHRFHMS

degradation of GSPT1 in tumors [1]: complete degradation
DC50 ([3]; ABC-1 cells): 22 nM
relative levels of GSPT1 vs concentration ([3]; FIG. 2B): concentration dependent manner
DC50 ([3]; NCI-H1155 cells): 3 nM
extent of GSPT1 degradation ([3]; both cell lines, NCI-H1155 and ABC-1): complete degradation
degradation of IKZF1 [4]: no induction of degradation
DC50 ([7]; ABC-1 cells): 22 nM
DC50 ([7]; NCI-H1155 cells): 3 nM
GSPT1 degradation ([7]; high N-Myc NCI-H1155 and ABC-1 cells, six hours of treatment): Complete degradation of GSPT1
GSPT1 levels in tumors (FIG. 3B) [9]: Complete degradation of GSPT1
degradation of IKZF3 [10]: no induction of degradation
Structure (SMILES): Cc1ccc(NC(=O)OCc2ccc3c(c2)C(=O)N(C2CCC(=O)NC2=O)C3)cc1Cl (stereo not drawn) [Compound 10]
sensitivity to treatment (viability in %) [2]: highly sensitive
tumor size (tumor volume) ([5]; 3 mg/kg PO once daily): tumor size decreased and remained so until the end of the study
tumor size (tumor volume) ([5]; 6 mg/kg PO five days on and nine days off): tumor size decreased and remained so until the end of the study
body weight ([5]; oral administration): no body weight loss
effect on tumor growth (tumor volume) ([5]; oral administration): tumor growth inhibition
sensitivity to treatment (viability in %) [6]: highly sensitive
anti-proliferative sensitivity (FIG. 2A) [8]: sensitivity correlated with the expression of N-Myc
